Patent US8017125B2, “Copolymers for suppression of autoimmune diseases, and methods of use” (President and Fellows of Harvard College, priority 2001, dated 2011)

Legend:
HLA-DR-2 molecules = biological target: T1, HLA-DR-2 molecules (Homo sapiens, UniProt P01903+P01911); experiment: Competitive binding of biotinylated MBP 86-100 to HLA-DR-2 molecules; conditions: biotinylated MBP 86-100 0.13 μM, 40 hr at 37° C.
T1 construct: Recombinant water-soluble HLA-DR-2 molecules were incubated with biotinylated MBP 86-100; Soluble HLA-DR-2 molecules were expressed in Drosophila S2 cells; made in house; host or cells: Drosophila S2 cells
Method: Protein expression and purification. Soluble HLA-DR-2 molecules were expressed in Drosophila S2 cells and purified as described (Kalandadze, A. et al. 1996. J. Biol. Chem. 271:20156-20162). Cells were grown at 26° C. in roller bottles in ExCell 401 medium (JRH Biosciences, Lenexa, Kans.) supplemented with 0-5% fetal bovine serum (Sigma Chemicals, St. Louis, Mo.). Cells were harvested 4-5 days after induction by 1 mM CuSO4. Supernatant from harvested cells was sequentially passed through Protein A, Protein G and Protein A-LB3.1 columns, followed by elution of the bound HLA-DR with 50 mM 3-[cyclohexylamino]-1-propanesulfonic acid (CAPS), pH 11.5, and neutralized with 200 mM phosphate (pH 6.0). Proteins were concentrated on a Centriprep 10 membrane (Amicon, Beverly, Mass.).
(A). Solutions. The solutions used in this assay are the following: binding buffer is 20 mM 2-[N-morpholino]ethanesulfonic acid (MES), 140 mM NaCl, 0.05% NaN3, pH 5.0, unless otherwise specified; PBS is 150 mM sodium chloride, 7.5 mM sodium phosphate, dibasic, 2.5 mM sodium phosphate, monobasic, pH 7.2; TBS is 137 mM sodium chloride, 25 mM Tris pH 8.0, 2.7 mM potassium chloride; TTBS is TBS plus 0.05% Tween-20. (B). […] Bound peptide-biotin was detected using streptavidin-conjugated alkaline phosphatase, as follows. […] Absorbance at 410 nm was monitored by a microplate reader (model MR4000; Dynatech, Chantilly, Va.).

[1] = tested on: 2E12 T cell clone (MBP 84-102-specific hybridoma from HLA-DR-2-transgenic mice); experiment: Antigen presentation assay, 2E12 T cell clone; format: cell-based, mouse; conditions: L466 APC, MBP 85-99 4 μM (FIG. 1A)
From the text: (§1) Antigen presentation assays.

[2] = tested on: Hy1B clone (MBP 84-102-specific TCR transfectant); experiment: Antigen presentation assay, Hy1B T cell clone; format: cell-based; conditions: MGAR APC, MBP 85-99 12.5 μM (FIG. 1C)
From the text: as §1

[3] = tested on: H-2s-restricted PLP 139-151-specific T cell hybridoma hPLP/1; experiment: Antigen presentation assay, hPLP/1 hybridoma; format: cell-based, mouse; conditions: SJL/J splenocytes, PLP 139-151 24 μM, copolymer 28 μM (FIG. 2B)
From the text: as §1

[4] = tested on: EAE induced by WSCH in SJL/J mice; experiment: Suppression of EAE induced by WSCH; format: in vivo; conditions: for Incidence (mice with clinical signs of EAE / total immunized mice): SJL/J mice coinjected s.c. with 500 μg WSCH and 500 μg copolymer, observed 40 days
Method: (§2) Induction and suppression of EAE. […] Mice were scored daily for clinical signs of EAE on a scale 1-5, according to the severity of disease symptoms as previously described (Santambrogio, L. et al. 1993. J. Immunol. 151: 1116). For determination of suppression of EAE, each copolymer (500 μg/mouse) was mixed and injected with the encephalitogenic emulsion as described above.
To find out whether VEAK and FEAK random copolymers affected the clinical course of EAE in SJL/J mice, a number of in vivo experiments were performed. The protocol for disease induction was subcutaneous injection to co-immunize with both WSCH (500 μg) and each copolymer (500 μg), similar to the protocol of previous studies of suppression of EAE by Cop1 (Teitelbaum, D. et al. 1996. J. Neuroimmunol. 64:209-217). Following disease induction, mice were observed daily for 40 days for appearance of typical clinical signs of EAE (Table 1).

[5] = tested on: EAE induced by PLP 139-151 in SJL/J mice; experiment: Suppression of EAE induced by PLP 139-151 peptide; format: in vivo; conditions: for Maximum mean score: clinical scale 1-5; for Incidence (mice with clinical signs of EAE / total immunized mice): Example 10: SJL/J mice co-injected with 50 μg PLP 139-151 and 500 μg copolymer, observed 70 days
Method: as §2
To find out whether random copolymers provided herein might affect development of chronic-relapsing EAE, mice were injected subcutaneously with 50 μg of PLP 139-151 (SEQ ID NO: 4; the encephalitogenic epitope in the SJL/J strain) alone, or with 50 μg of PLP 139-151 (SEQ ID NO: 4) and 500 μg of the copolymer. Mice were examined on a daily basis for 90 days after the induction of the disease.
In vivo experiments were carried out to determine whether the Y- and F-containing 50-mer random copolymers would affect the clinical course of EAE in SJL/J mice. As in Examples above, the protocol for co-immunization was subcutaneous injection of SJL/J mice with, in this example, the encephalitogenic epitope PLP 139-151 (SEQ ID NO: 4; 50 μg) and a copolymer preparation (500 μg). Following disease induction, mice were observed daily for appearance of typical signs of EAE, during a period of 70 days.

[6] = tested on: EAE induced by MBP 85-99 in humanized mice carrying HLA DR-2 and TCR transgenes; experiment: Suppression of EAE induced by MBP 85-99 in humanized mice; format: in vivo; conditions: for Clinical score (severity of symptoms): 50 days
From the text: Mouse strains. SJL/J (H-2^s) mice (8-12 weeks of age) were purchased from Jackson Laboratories (Bar Harbor, Me.) and were maintained in the animal facility at Harvard University according to the Guidelines of the Committee on Animals of Harvard University and the Committee on Care and Use of Laboratory Animal Resources, National Research Counsel (Department of Health and Human Services Publication 85-23, revised 1987).
Experimental animals were humanized mice carrying transgenes HLA DR-2 (DRA* 0101 and DRB1* 1501) and TCR from MS patient […], which is a V(D)J rearrangement of TCRα and TCRβ, amplified from clone Ob.1A12. Mice in each group were injected with MBP 85-99 (SEQ ID NO: 2) subcutaneously to induce EAE. […] Clinical symptoms were monitored over a course of 50 days on days indicated.

[7] = tested on: H-2s-restricted PLP 139-151-specific T cell hybridoma hPLP/c4; conditions: SJL/J splenocytes, PLP 139-151 24 μM, copolymer 28 μM (FIG. 2C)
MS patients = conditions: cited from earlier work
[8] = SJL/J mice, 500 μg WSCH + 500 μg copolymer
[9] = Example 10: 50 μg PLP 139-151 + 500 μg copolymer
[10] = Example 10: 50 μg PLP 139-151 + 500 μg copolymer, listed as Copaxone®

Q: With ENPVVHFFKNIVTPR [MBP 85-99] as the substance, how does the “Inhibition of binding of biotinylated MBP 86-100 to HLA-DR-2 molecules” value (HLA-DR-2 molecules) read?
A: The value was “inhibited most efficiently”.

Q: For Glatiramer acetate [Copaxone ®], which “Inhibition of binding of biotinylated MBP 86-100 to HLA-DR-2 molecules” value (HLA-DR-2 molecules) is on record?
A: The value was “inhibited most efficiently”.

Q: And the “Inhibition of proliferation of the 2E12 T cell clone” value [1]?
A: Its value is “efficient”.

Q: And the “Inhibition of the Hy1B clone” value [2]?
A: The value was “best inhibitor”.

Q: And the “Inhibition of proliferation of hPLP/1 hybridoma” value [3]?
A: Its value is “best inhibited”.

Q: What about the “Incidence (mice with clinical signs of EAE / total immunized mice)” value [4] of the same substance?
A: The value was 1/14.

Q: And the “Incidence (mice with clinical signs of EAE / total immunized mice)” value ([4]; listed as Copaxone®)?
A: The value was “One out of fourteen”.

Q: What about the “Mean day of onset” value [4, 8] of the same substance?
A: Its value is 20.0 days.

Q: And the Percent disease [4, 8]?
A: Its Percent disease is 7%.

Q: What about the Percent mortality [4, 8] of the same substance?
A: The Percent mortality was 0%.

Q: What about the Maximum mean score ([4]; SJL/J mice, 500 μg WSCH + 500 μg copolymer, clinical scale 1-5) of the same substance?
A: Its Maximum mean score is 3.0.

Q: What about the “Mean day of onset” value ([4]; SJL/J mice, 500 μg WSCH + 500 μg copolymer, listed as Copaxone®) of the same substance?
A: The value was 20 days.

Q: And the “Effect on course of EAE induced by WSCH (in words)” value ([4]; co-immunization, 500 μg copolymer)?
A: Its value is “suppressed EAE”.

Q: What about the “Day of first attack” value ([5]; Example 6) of the same substance?
A: The value was 26 days.

Q: What about the “Day of peak of first attack” value ([5]; Example 6) of the same substance?
A: Its value is 34 days.

Q: And the Mean maximal score ([5]; Example 6)?
A: The Mean maximal score was 1.25.

Q: And the Mortality ([5]; Example 6: 50 μg PLP 139-151 + 500 μg copolymer, 90 days)?
A: Its Mortality is 12%.

Q: What about the “Mice with clinical signs of EAE out of group” value ([5]; Example 6: 50 μg PLP 139-151 + 500 μg copolymer, observed 90 days) of the same substance?
A: The value was “two out of eight”.

Q: What about the “Mean day of onset” value [5, 9] of the same substance?
A: Its value is 22.7 ± 7.1 days.

Q: And the Percent disease [5, 9]?
A: Its Percent disease is 75%.

Q: And the Percent mortality [5, 9]?
A: Its Percent mortality is 6%.

Q: What about the Maximum mean score [5, 9] of the same substance?
A: The Maximum mean score was 2.6 ± 1.6.

Q: And the Maximum mean score [5, 10]?
A: The Maximum mean score was 2.6.

Q: And the “Mean day of onset” value [5, 10]?
A: The value was 22 days.

Q: What about the “Incidence (mice with clinical signs of EAE / total immunized mice)” value [5] of the same substance?
A: Its value is 12/16.

Q: What about the “Incidence (mice with clinical signs of EAE / total immunized mice)” value ([5]; listed as Copaxone®) of the same substance?
A: Its value is 12 of 16.

Q: What about the “Number of time points with symptoms” value ([6]; co-immunized) of the same substance?
A: The value was “nine”.

Q: What about the “Clinical score (severity of symptoms)” value ([6]; co-immunized on day 0 with 500 μg copolymer and 50 μg MBP 85-99) of the same substance?
A: The value was 2 to 3.

Q: And the “Number of time points with symptoms” value ([6]; pre-immunized)?
A: The value was 14 time points.

Q: And the “Stable level of symptoms (severity)” value ([6]; pre-immunized)?
A: Its value is “greater than 1”.

Q: And the “Clinical score (severity of symptoms)” value ([6]; pre-immunized two days prior to EAE induction)?
A: Its value is “greater than 3”.

Q: And the “Inhibition of hPLP/c4 hybridoma” value [7]?
A: The value was “best inhibited”.

Q: And the “Reduction of frequency of relapse” value (MS patients)?
A: Its value is “about 30%”.

Q: And the Toxicity (MS patients; wide use)?
A: The Toxicity was “little or no toxicity”.
